Test results: patent US8754071B2 (priority 2011, dated 2014)

Target: T1, c-kit (Homo sapiens, UniProt P10721)
T1 construct: human Mo7e cells which endogenously express c-kit; endogenous in cells; host or cells: human Mo7e cells (promegakaryocytic leukemia line), stimulated with human recombinant SCF
Assay: Mo7e cell proliferation assay (SCF dependent proliferation)
Assay type: cell-based
Settings: Table 2; human Mo7e cells stimulated with SCF, 48 hours, CellTiter Glo; 1% FBS; read-out: c-kit (Mo7e)
In short: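 Human Mo7e cells with endogenous c-kit, proliferation driven by SCF, 384-well format. After 48 h at 37 °C viability read by CellTiter-Glo luminescence. IC50 taken as concentration giving response halfway between baseline and maximum.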

T1 sequence (P10721 26-976): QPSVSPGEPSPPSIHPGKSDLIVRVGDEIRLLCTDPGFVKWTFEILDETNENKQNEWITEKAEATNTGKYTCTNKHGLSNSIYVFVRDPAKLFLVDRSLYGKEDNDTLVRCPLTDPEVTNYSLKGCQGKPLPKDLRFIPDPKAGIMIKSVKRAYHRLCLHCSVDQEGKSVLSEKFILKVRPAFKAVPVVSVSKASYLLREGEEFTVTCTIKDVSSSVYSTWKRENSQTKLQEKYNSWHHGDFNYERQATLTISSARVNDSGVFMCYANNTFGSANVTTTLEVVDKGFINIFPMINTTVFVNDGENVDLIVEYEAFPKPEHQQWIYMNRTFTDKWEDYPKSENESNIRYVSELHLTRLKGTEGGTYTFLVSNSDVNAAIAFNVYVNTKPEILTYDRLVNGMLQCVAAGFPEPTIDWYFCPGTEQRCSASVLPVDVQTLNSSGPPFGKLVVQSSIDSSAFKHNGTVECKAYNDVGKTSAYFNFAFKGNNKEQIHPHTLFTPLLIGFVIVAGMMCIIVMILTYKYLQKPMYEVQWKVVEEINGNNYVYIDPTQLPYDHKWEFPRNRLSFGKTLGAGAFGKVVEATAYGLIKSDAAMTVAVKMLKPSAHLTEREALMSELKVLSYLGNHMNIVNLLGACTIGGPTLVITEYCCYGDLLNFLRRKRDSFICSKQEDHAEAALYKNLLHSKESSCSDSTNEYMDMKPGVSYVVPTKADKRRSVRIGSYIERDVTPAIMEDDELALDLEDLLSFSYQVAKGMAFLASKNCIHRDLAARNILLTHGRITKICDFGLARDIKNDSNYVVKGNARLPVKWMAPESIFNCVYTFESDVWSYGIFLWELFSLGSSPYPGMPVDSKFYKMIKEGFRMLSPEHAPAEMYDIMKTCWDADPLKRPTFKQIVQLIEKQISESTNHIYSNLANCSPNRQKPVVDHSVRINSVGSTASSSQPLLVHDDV

Structure (SMILES) | IC50
Cc1ccc(-c2noc(C[C@@H]3CCCN3C(=O)OC(C)(C)C)n2)cc1NC(=O)c1cnc2ccccn12 [F211] | 106 nM
Cc1ccc(-c2noc([C@H]3CCCN3S(C)(=O)=O)n2)cc1NC(=O)c1cnc2ccccn12 [F213] | 137 nM
COC(=O)N1CCC(Cc2nc(-c3ccc(C)c(NC(=O)c4cnc5ccccn45)c3)no2)CC1 [F214] | 142 nM
Cc1ccc(-c2noc(CC3CCN(S(C)(=O)=O)CC3)n2)cc1NC(=O)c1cnc2ccccn12 [F215] | 175 nM
Cc1ccc(-c2noc(C[C@@H]3CCCN3)n2)cc1NC(=O)c1cnc2ccccn12 [F216] | 519 nM
Cc1ccc(-c2noc(C3CN(S(=O)(=O)c4cnn(C)c4)C3)n2)cc1NC(=O)c1cnc2ccccn12 [F217] | 173 nM
Cc1ccc(-c2noc(C3CN(S(=O)(=O)c4cn[nH]c4)C3)n2)cc1NC(=O)c1cnc2ccccn12 [F218] | 155 nM
CCCCS(=O)(=O)N1CC(c2nc(-c3ccc(F)c(NC(=O)c4cnc5ccccn45)c3)no2)C1 [F219] | 158 nM
O=C(Nc1cc(-c2noc(C3CN(S(=O)(=O)c4cccnc4)C3)n2)ccc1F)c1cnc2ccccn12 [F220] | 690 nM
Cn1ccc(S(=O)(=O)N2CC(c3nc(-c4ccc(F)c(NC(=O)c5cnc6ccccn56)c4)no3)C2)n1 [F221] | 851 nM
O=C(Nc1cc(-c2noc(C3CN(S(=O)(=O)C(F)F)C3)n2)ccc1F)c1cnc2ccccn12 [F223] | 151 nM
COCCCN1CC(c2nc(-c3ccc(C)c(NC(=O)c4cnc5ccccn45)c3)no2)C1 [F225] | 239 nM
Cc1ccc(-c2noc([C@@H](C)N3CC(F)(F)C3)n2)cc1NC(=O)c1cnc2ccccn12 [F226] | 112 nM
O=C(Nc1cc(-c2noc(CN3CC(F)(F)C3)n2)ccc1F)c1cnc2ccccn12 [F228] | 341 nM
O=C(Nc1cc(-c2noc(CN3CCOCC3)n2)ccc1F)c1cnc2ccccn12 [F229] | 245 nM
COC(=O)N1CC(c2nc(-c3cc(NC(=O)c4cnc5ccccn45)c(C)cc3F)no2)C1 [F231] | 439 nM
Cc1cc(F)c(-c2noc(C3CN(S(C)(=O)=O)C3)n2)cc1NC(=O)c1cnc2ccccn12 [F232] | 489 nM
COC(=O)N1CC(c2nc(-c3ccc(C)c(NC(=O)c4cnc5ccc(C(F)(F)F)cn45)c3)no2)C1 [F233] | 218 nM
Cc1ccc(-c2noc(C3CN(C(=O)OC(C)C)C3)n2)cc1NC(=O)c1cnc2ccccn12 [F234] | 245 nM
COC(=O)N1CC(c2nc(-c3ccc(C)c(NC(=O)c4cnc5cc(C#N)ccn45)c3)no2)C1 [F235] | 181 nM
COC(=O)N1CC(c2nc(-c3ccc(C)c(NC(=O)c4cnc5ccc(C#N)cn45)c3)no2)C1 [F236] | 103 nM
COC(=O)N1CC(C)(c2nc(-c3ccc(C)c(NC(=O)c4cnc5ccccn45)c3)no2)C1 [F240] | 249 nM
COC(=O)N1CC(c2nc(-c3ccc(C)c(NC(=O)c4cnc5ccc(CCC(=O)OC(C)(C)C)cn45)c3)no2)C1 [F241] | 115 nM
COC(=O)N1CC(c2nc(-c3ccc(C)c(NC(=O)c4cnc5c(F)cccn45)c3)no2)C1 [F242] | 812 nM
Cc1ccc(-c2noc(C3CN(c4cnccn4)C3)n2)cc1NC(=O)c1cnc2ccccn12 [F243] | 310 nM
Cc1nc(N2CC(c3nc(-c4ccc(C)c(NC(=O)c5cnc6ccccn56)c4)no3)C2)no1 [F244] | 176 nM

Structure (SMILES) | IC50
COC(=O)N1CC(c2nc(-c3ccc(C)c(NC(=O)c4cnc5ccc(C(C)=O)cn45)c3)no2)C1 [F245] | 178 nM
Cc1ccc(-c2noc(N3CCC3)n2)cc1NC(=O)c1cnc2ccccn12 [F248] | 132 nM
COC(=O)N1CC(c2nc(-c3ccc(C)c(NC(=O)c4cnc5ccccn45)c3C)no2)C1 [F249] | 426 nM
COC(=O)N1CC(c2nc(-c3ccc(C)c(NC(=O)c4cnc5cc(N6CCOC6=O)ccn45)c3)no2)C1 [F250] | 114 nM
Cc1ccc(-c2nc(N3CC(C)(O)C3)no2)cc1NC(=O)c1cnc2ccccn12 [F251] | 157 nM
COC(=O)N1CC(c2nc(-c3ccc(C)c(NC(=O)c4cnc5ccc(-n6ccnc6)cn45)c3)no2)C1 [F252] | 421 nM
COC1CN(c2nc(-c3ccc(C)c(NC(=O)c4cnc5cc(C)ccn45)c3)no2)C1 [F254] | 111 nM
Cc1ccn2c(C(=O)Nc3cc(-c4noc(N5CCN6C(=O)OC[C@@H]6C5)n4)ccc3C)cnc2c1 [F255] | 129 nM
Cc1ccc2ncc(C(=O)Nc3cc(-c4noc(C5CCN5C(=O)OC(C)(C)C)n4)ccc3C)n2c1 (stereo not drawn) [F261] | 291 nM
COC(=O)N1CC[C@H]1c1nc(-c2ccc(C)c(NC(=O)c3cnc4ccc(C)cn34)c2)no1 [F262] | 309 nM
Cc1ccc(-c2noc(C3CCO3)n2)cc1NC(=O)c1cnc2ccccn12 (stereo not drawn) [F263] | 350 nM
Cc1ccc(-c2noc(C3CN(C(=O)OCC(F)(F)F)C3)n2)cc1NC(=O)c1cnc2ccccn12 [F264] | 438 nM
COC(=O)N1CC(c2nc(-c3ccc(C)c(NC(=O)c4cnc5ccc(CO)cn45)c3)no2)C1 [F266] | 523 nM
CC(=O)N1CCC[C@@H]1c1nc(-c2ccc(C)c(NC(=O)c3cnc4ccccn34)c2)no1 [F269] | 1010 nM
Cc1ccc(-c2noc(C3C[C@@H](O)CN3S(C)(=O)=O)n2)cc1NC(=O)c1cnc2ccc(F)cn12 (stereo partly drawn) [F272] | 1140 nM
Cc1ccc(-c2noc([C@H]3C[C@@H](O)CN3S(C)(=O)=O)n2)cc1NC(=O)c1cnc2ccc(F)cn12 [F273] | 1170 nM
Cc1ccc(-c2noc(C3CCCNC3)n2)cc1NC(=O)c1cnc2ccccn12 (stereo not drawn) [F274] | 1200 nM
Cc1ccc(-c2noc([C@@H]3COCCN3)n2)cc1NC(=O)c1cnc2ccccn12 [F276] | 1240 nM
Cc1ccc(-c2noc([C@H]3CCCN3C(=O)OC(C)(C)C)n2)cc1NC(=O)c1cnc2ccccn12 [F278] | 1280 nM
Cc1ccn2c(C(=O)Nc3cc(-c4noc(N5CC(S(C)(=O)=O)C5)n4)ccc3C)cnc2c1 [F281] | 1370 nM
Cc1ccc(-c2noc(CC3CN(C(=O)OC(C)(C)C)C3)n2)cc1NC(=O)c1cnc2ccccn12 [F283] | 1630 nM
Cc1ccc(-c2noc(C3CCCNC3)n2)cc1NC(=O)c1cnc2ccccn12 (stereo not drawn) [F285] | 1670 nM
Cc1ccc(-c2noc(C3(N)COC3)n2)cc1NC(=O)c1cnc2ccccn12 [F286] | 1680 nM
Cc1ccc(-c2noc([C@@H]3C[C@H](O)CN3S(C)(=O)=O)n2)cc1NC(=O)c1cnc2ccc(F)cn12 [F287] | 1680 nM
Cc1ccc(-c2noc(CC3CCNCC3)n2)cc1NC(=O)c1cnc2ccccn12 [F289] | 1880 nM

Further lines, results first:

IC50 | Structure (SMILES)
134 nM | COC(=O)N1CCC[C@H](c2nc(-c3ccc(C)c(NC(=O)c4cnc5ccccn45)c3)no2)C1 [F208]
148 nM | Cc1ccc(-c2noc([C@H]3CCCN(S(C)(=O)=O)C3)n2)cc1NC(=O)c1cnc2ccccn12 [F209]
710 nM | Cc1ccc(-c2noc(CC3CCN(C(=O)OC(C)(C)C)CC3)n2)cc1NC(=O)c1cnc2ccccn12 [F210]
170 nM | COC(=O)N1CCC[C@@H]1c1nc(-c2ccc(C)c(NC(=O)c3cnc4ccccn34)c2)no1 [F212]
376 nM | COCCS(=O)(=O)N1CC(c2nc(-c3ccc(F)c(NC(=O)c4cnc5ccccn45)c3)no2)C1 [F222]
854 nM | Cn1cc(S(=O)(=O)N2CC(c3nc(-c4ccc(F)c(NC(=O)c5cnc6ccccn56)c4)no3)C2)cn1 [F224]
119 nM | Cc1ccc(-c2noc([C@@H](C)N3CCC(F)(F)C3)n2)cc1NC(=O)c1cnc2ccccn12 [F227]
217 nM | Cc1ccc(-c2noc(C3CN(C(=O)C(F)(F)F)C3)n2)cc1NC(=O)c1cnc2ccccn12 [F230]
109 nM | COCC(c1nc(-c2ccc(C)c(NC(=O)c3cnc4ccccn34)c2)no1)N1CCC(F)(F)C1 (stereo not drawn) [F237]
130 nM | COC(=O)N1CC(c2nc(-c3ccc(C)c(NC(=O)c4cnc5cc(C(F)(F)F)ccn45)c3)no2)C1 [F238]
831 nM | Cc1ccc(-c2noc(C3(C)CN(C(=O)OC(C)(C)C)C3)n2)cc1NC(=O)c1cnc2ccccn12 [F239]
317 nM | COC(=O)N1CC(c2nc(-c3ccc(C)c(NC(=O)c4cnc5ccc(C(C)(C)O)cn45)c3)no2)C1 [F246]
328 nM | COC(=O)N1CC(c2nc(-c3ccc(C)c(NC(=O)c4cnc5ccc(CC(C)(C)O)cn45)c3)no2)C1 [F247]
215 nM | COCc1n[nH]c(-c2ccc3ncc(C(=O)Nc4cc(-c5noc(C6CN(C(=O)OC)C6)n5)ccc4C)n3c2)n1 [F253]
106 nM | Cc1ccc(-c2noc(CN3CC(C#N)C3)n2)cc1NC(=O)c1cnc2ccc(-c3cnn(C)c3)cn12 [F256]
177 nM | Cc1ccc(-c2noc(C3CN(C(=O)OCC(F)F)C3)n2)cc1NC(=O)c1cnc2ccccn12 [F259]
205 nM | Cc1ccc2ncc(C(=O)Nc3cc(-c4noc(COC5COC5)n4)ccc3C)n2c1 [F260]
650 nM | Cc1ccc2ncc(C(=O)Nc3cc(-c4noc(COC5CN(C(=O)OC(C)(C)C)C5)n4)ccc3C)n2c1 [F267]
1040 nM | Cc1ccc(-c2noc(CNC(=O)CC3CCOCC3)n2)cc1NC(=O)c1cnc2ccccn12 [F270]
1120 nM | CCN1CC(c2nc(-c3ccc(C)c(NC(=O)c4cnc5ccccn45)c3)no2)C1 [F271]
1230 nM | CC(=O)N1CCOC[C@H]1c1nc(-c2ccc(C)c(NC(=O)c3cnc4ccccn34)c2)no1 [F275]
1250 nM | Cc1ccc(-c2noc(C3CN(C(=O)OC(C)(C)C)CCO3)n2)cc1NC(=O)c1cnc2ccccn12 (stereo not drawn) [F277]
1280 nM | Cc1cc(F)c(-c2noc(C3CN(C(=O)OC(C)(C)C)C3)n2)cc1NC(=O)c1cnc2ccccn12 [F279]
1310 nM | Cc1ccc2ncc(C(=O)Nc3cc(-c4noc([C@@H]5CCN5)n4)ccc3C)n2c1 [F280]
1650 nM | Cc1ccc(-c2noc(C[C@H]3CCNC3)n2)cc1NC(=O)c1cnc2ccccn12 [F284]

Same assay, conditions: Table 2; values marked *: 20% FBS instead of 1% FBS; read-out: c-kit (Mo7e)

IC50 | Structure (SMILES)
1600 nM | Cc1ccc(-c2noc(C3CCCN(C(=O)OC(C)(C)C)C3)n2)cc1NC(=O)c1cnc2ccccn12 (stereo not drawn) [F282]
1780 nM | Cc1ccc(-c2noc(C3CCCCN3C(=O)OC(C)(C)C)n2)cc1NC(=O)c1cnc2ccccn12 (stereo not drawn) [F288]
